Data from PubChem BioAssay (NCI).
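In this assay, cells in 96-well plates receive the compound at five concentrations for 48 hours. Endpoints are linearly interpolated between the surrounding concentrations. GI50 marks 50% less growth. The concentration for full growth arrest is given as TGI.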

Key:
Assay in all cases: DTP human tumour cell line panel, 48 h
HOP-92 NSCLC = system: HOP-92 NSCLC
DU-145 prostate = system: DU-145 prostate
NCI/ADR-RES ovarian = system: NCI/ADR-RES ovarian
ACHN renal = system: ACHN renal
T-47D breast = system: T-47D breast
HOP-62 NSCLC = system: HOP-62 NSCLC
PC-3 prostate = system: PC-3 prostate
MDA-MB-231 breast = system: MDA-MB-231 breast
NCI-H226 lung = system: NCI-H226 lung
SW-620 colon = system: SW-620 colon

Compound	TGI (HOP-92 NSCLC) [µM]	TGI (DU-145 prostate) [µM]	TGI (NCI/ADR-RES ovarian) [µM]	TGI (ACHN renal) [µM]	TGI (T-47D breast) [µM]	TGI (HOP-62 NSCLC) [µM]	TGI (PC-3 prostate) [µM]	TGI (MDA-MB-231 breast) [µM]	TGI (NCI-H226 lung) [µM]	TGI (SW-620 colon) [µM]	GI50 (HOP-92 NSCLC) [µM]	GI50 (DU-145 prostate) [µM]	GI50 (NCI/ADR-RES ovarian) [µM]	GI50 (ACHN renal) [µM]	GI50 (T-47D breast) [µM]	GI50 (HOP-62 NSCLC) [µM]	GI50 (PC-3 prostate) [µM]	GI50 (MDA-MB-231 breast) [µM]	GI50 (NCI-H226 lung) [µM]	GI50 (SW-620 colon) [µM]
CC(NC(=O)C(NC(=O)CNC(=O)OC(C)(C)C)C(C)C)C(=O)Oc1c(Cl)c(Cl)c(Cl)c(Cl)c1Cl (stereo not given)	41.3	49.3	39.1	58.9	62.4	35.7	32.1	42	52.6	60										
Cc1cccc(Nc2nn3c(=O)c4c5c(sc4nc3s2)CCCC5)c1	> 100	> 100	> 100	> 100	74.2	> 100	> 100	> 100	> 100	> 100										
CCN(CC)N1C(=O)[N+](CC)(CC)N=C1[O-]	> 100	> 100	> 100	> 100	> 100	> 100	> 100	> 100	> 100	> 100										
N#CC1(C#N)NC(c2cccs2)C(C#N)(C#N)NC1c1cccs1 (stereo not given)	78.7	> 100	> 100	> 100	> 100	> 100	> 100	> 100	> 100	> 100										
Cc1ccc(OCC2OC(n3cnc4c(Cl)nc(N)nc43)CC2Oc2ccc(C)cc2)cc1 (stereo not given)	51.7	> 100	> 75.5	40	> 100	> 52.5	> 58.5	> 100	> 100	> 100										
Cc1ccc(OCC2OC(n3cnc4nc(N)nc(Cl)c43)CC2Oc2ccc(C)cc2)cc1 (stereo not given)	70	35.9	47.2	35	34.7	52.6	44.6	> 100	47.5	> 100										
COP(=O)(OC)C(Cc1cn(C(C)=O)c2ccccc12)C(=O)O (stereo not given)	> 100	> 100	> 100	> 100	> 100	> 100	> 100	> 100	> 100	> 100										
CCOC(=O)c1nc2ccc(C(F)(F)F)cc2nc1Oc1cc(OC)c(OC)c(OC)c1	> 100	> 100	> 100	> 100	> 100	> 100	> 100	> 100	81.9	> 100										
CC1CCCC2(CC[N+](C)(CCC[N+](C)(C)C)CC2)C1 (stereo not given)	> 100	> 100	> 100	> 100	> 100	> 100	> 100	> 100	> 100	> 100										
CC(C)CNc1nc2ncnc(N)c2[nH]1	> 100	> 100	> 100	> 100	> 100	> 100	> 100	> 100	> 100	> 100										
O=C1NC(=O)C(C(CC(=O)c2ccc([N+](=O)[O-])cc2)c2ccccc2)C(=O)N1 (stereo not given)	> 100	> 100	> 100	> 100	67	> 100	> 100	> 100	> 100	> 100										
O=C(N/N=C/C=C/c1ccc([N+](=O)[O-])o1)c1cc2ccccc2cc1O	5.52	8.67	7.27	9.39	3.68	10.6	9.97	8.65	4.78	3.05	2.08	2.26	1.36	1.26	1.44	3.27	2.02	2.17	1.64	1.05
O=C1C[C@@H](C(=O)OCc2ccccc2)NC(=O)C[C@@H](C(=O)OCc2ccccc2)NC(=O)C[C@@H](C(=O)OCc2ccccc2)N1	> 60.7	> 100	> 100	> 62.9	> 100	> 88.5	> 100	70.9	> 100	> 100										
Cc1ccc2c(=O)cc(-c3ccc(Cl)s3)[nH]c2n1	> 100	> 100	> 100	> 100	> 100	> 100	> 100	> 100	7.79	> 100										
